Several values for one entry are separate records, joined by “and”; a condition that tells them apart may be missing. Equal entries are not always repeated. Where two headings read alike, the source gives them in different places.
How the values were obtained:
PHD1 (EGLN2) = PHD1 (EGLN2) (Homo sapiens (Human), UniProt Q96KS0); experiment: HIF-PH assay (14CO2 capture), PHD1 enzyme inhibition; assay type: biochemical; conditions: for PHD2/PHD1 avg.: average of the ratios of multiple independent measurements
PHD1 (EGLN2), sequence (Q96KS0 whole entry): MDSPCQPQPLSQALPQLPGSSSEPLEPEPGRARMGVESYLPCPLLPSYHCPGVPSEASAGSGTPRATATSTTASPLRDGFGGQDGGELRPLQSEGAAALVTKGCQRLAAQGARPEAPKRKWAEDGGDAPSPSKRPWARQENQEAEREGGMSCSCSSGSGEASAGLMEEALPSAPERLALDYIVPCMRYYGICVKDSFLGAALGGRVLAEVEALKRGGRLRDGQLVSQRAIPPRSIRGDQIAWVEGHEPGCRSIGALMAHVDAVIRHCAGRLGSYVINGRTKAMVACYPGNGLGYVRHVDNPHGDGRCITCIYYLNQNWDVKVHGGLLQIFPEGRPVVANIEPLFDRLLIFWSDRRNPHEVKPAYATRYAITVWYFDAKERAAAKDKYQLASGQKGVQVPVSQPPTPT

PHD2 (EGLN1) = PHD2 (EGLN1) (Homo sapiens (Human), UniProt Q9GZT9); experiment: HIF-PH assay (14CO2 capture), PHD2 enzyme inhibition; assay type: biochemical; conditions: Table 1
PHD2 (EGLN1), sequence (Q9GZT9 whole entry): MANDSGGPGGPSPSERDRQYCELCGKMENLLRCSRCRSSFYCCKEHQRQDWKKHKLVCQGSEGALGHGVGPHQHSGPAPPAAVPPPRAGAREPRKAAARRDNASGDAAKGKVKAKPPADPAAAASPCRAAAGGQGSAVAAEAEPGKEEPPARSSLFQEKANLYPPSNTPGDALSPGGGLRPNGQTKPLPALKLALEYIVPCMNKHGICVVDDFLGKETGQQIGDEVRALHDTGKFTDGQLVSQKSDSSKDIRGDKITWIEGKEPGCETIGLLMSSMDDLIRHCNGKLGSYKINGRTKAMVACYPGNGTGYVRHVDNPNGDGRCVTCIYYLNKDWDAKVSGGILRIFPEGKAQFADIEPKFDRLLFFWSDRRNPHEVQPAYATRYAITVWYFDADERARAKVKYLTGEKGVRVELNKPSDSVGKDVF

[1] = Table 1, individual measurement, read-out: IC50 (μM) PHD1
[2] = Table 1, ratio of the IC50 of the compound for each enzyme
[3] = individual measurement, read-out: IC50 (μM) PHD2
[4] = Table 1, average of multiple independent measurements, read-out: IC50 (μM) PHD1 avg.
[5] = average of multiple independent measurements, read-out: IC50 (μM) PHD2 avg.

| IC50 (PHD1 (EGLN2); [1]) | PHD2/PHD1 (PHD1 (EGLN2); [2]) | IC50 (PHD2 (EGLN1); [3]) | IC50 (PHD1 (EGLN2); [4]) | PHD2/PHD1 avg. (PHD1 (EGLN2); Table 1) | IC50 (PHD2 (EGLN1); [5]) | SMILES | PHD2/PHD1 (PHD1 (EGLN2)) | IC50 (PHD1 (EGLN2); read-out: IC50 (μM) PHD1) |
| --- | --- | --- | --- | --- | --- | --- | --- | --- |
| 0.54 µM | 9 | 5.1 µM | – | – | – | CCC(CNC(=O)c1nc(C#N)c2cc(Oc3ccccc3)ccc2c1O)C(=O)O (stereo not shown) [Compound 57, 2-((1-Cyano-4-hydroxy-7-phenoxyisoquinoline-3-carboxamido)methyl)butanoic acid] | – | – |
| 1.1 µM | 11 | 12.3 µM | – | – | – | CCC(C)(CNC(=O)c1nc(C#N)c2cc(Oc3ccccc3)ccc2c1O)C(=O)O (stereo not shown) [Compound 58, 2-{[(1-Cyano-4-hydroxy-7-phenoxy-isoquinoline-3-carbonyl)-amino]-methyl}-2-methyl-butyric acid] | – | – |
| 0.13 µM | 6.5 | 0.86 µM | – | – | – | CC(C)(CNC(=O)c1nc(C#N)c2cc(Oc3ccc4ccccc4c3)ccc2c1O)C(=O)O [Compound 59, 3{-[1-Cyano-4-hydroxy-7-(naphthalen-2-yloxy)-isoquinoline-3-carbonyl]-amino}-2,2-dimethyl-propionic acid] | – | – |
| 1 µM and 1.08 µM | – | 3.65 µM and 10.8 µM | 1.04 µM | 6.8 avg | 7.23 µM | COc1ccccc1Oc1ccc2c(O)c(C(=O)NCC(C)(C)C(=O)O)nc(C#N)c2c1 [Compound 60, 3{-[1-Cyano-4-hydroxy-7-(2-methoxy-phenoxy)-isoquinoline-3-carbonyl]-amino}-2,2-dimethyl-propionic acid] | – | – |
| 0.48 µM | 6 | 3.06 µM | – | – | – | CCc1ccccc1Oc1ccc2c(O)c(C(=O)NCC(C)(C)C(=O)O)nc(C#N)c2c1 [Compound 62, 3{-[1-Cyano-7-(2-ethyl-phenoxy)-4-hydroxy-isoquinoline-3-carbonyl]-amino}-2,2-dimethyl-propionic acid] | – | – |
| 2.82 µM | 10 | 26.9 µM | – | – | – | CC[C@H](CC(=O)O)NC(=O)c1nc(C#N)c2cc(Oc3ccccc3)ccc2c1O [Compound 63, 3-(R)-[(1-Cyano-4-hydroxy-7-phenoxy-isoquinoline-3-carbonyl)-amino]-pentanoic acid] | – | – |
| 0.93 µM | 14 | 12.6 µM | – | – | – | C[C@H](CC(=O)O)NC(=O)c1nc(C#N)c2cc(Oc3ccccc3)ccc2c1O [Compound 64, 3-(R)-[(1-Cyano-4-hydroxy-7-phenoxy-isoquinoline-3-carbonyl)-amino]-butyric acid] | – | – |
| 0.73 µM | 8 | 5.99 µM | – | – | – | N#Cc1nc(C(=O)NCC(F)(F)C(=O)O)c(O)c2ccc(Oc3ccccc3)cc12 [Compound 65, 3-[(1-Cyano-4-hydroxy-7-phenoxy-isoquinoline-3-carbonyl)-amino]-2,2-difluoro-propionic acid] | – | – |
| 6.23 µM and 4.8 µM | – | 26.5 µM and 80.5 µM | 5.52 µM | 10.5 avg. | 53.5 µM | CC(C)CC(CC(=O)O)NC(=O)c1nc(C#N)c2cc(Oc3ccccc3)ccc2c1O (stereo not shown) [Compound 66, 3-[(1-Cyano-4-hydroxy-7-phenoxy-isoquinoline-3-carbonyl)-amino]-5-methyl-hexanoic acid] | – | – |
| 2.43 µM | 26 | 64.1 µM | – | – | – | C[C@@H](NC(=O)c1nc(C#N)c2cc(Oc3ccccc3)ccc2c1O)[C@@H](C)C(=O)O [Compound 69, (2R,3R)-3-[(1-Cyano-4-hydroxy-7-phenoxy-isoquinoline-3-carbonyl)-amino]-2-methyl-butyric acid] | – | – |
| 1.86 µM | 35 | 65.8 µM | – | – | – | C[C@H](C(=O)O)[C@@H](C)NC(=O)c1nc(C#N)c2cc(Oc3ccccc3)ccc2c1O [Compound 70, (2S,3R)-3-[(1-Cyano-4-hydroxy-7-phenoxy-isoquinoline-3-carbonyl)-amino]-2-methyl-butyric acid] | – | – |
| 2.77 µM | 39 | 107 µM | – | – | – | C[C@H](NC(=O)c1nc(C#N)c2cc(Oc3ccccc3)ccc2c1O)[C@H](C)C(=O)O [Compound 71, (2S,3S)-3-[(1-Cyano-4-hydroxy-7-phenoxy-isoquinoline-3-carbonyl)-amino]-2-methyl-butyric acid] | – | – |
| 11.8 µM | 17 | 200 µM | – | – | – | C[C@H](NC(=O)c1nc(C#N)c2cc(Oc3ccccc3)ccc2c1O)[C@@H](C)C(=O)O [Compound 72, (2R,3S)-3-[(1-Cyano-4-hydroxy-7-phenoxy-isoquinoline-3-carbonyl)-amino]-2-methyl-butyric acid] | – | – |
| 0.74 µM | 5 | 3.38 µM | – | – | – | C[C@](O)(CNC(=O)c1nc(C#N)c2cc(Oc3ccccc3)ccc2c1O)C(=O)O [Compound 73, (S)-3-(1-Cyano-4-hydroxy-7-phenoxyisoquinoline-3-carboxamido)-2-hydroxy-2-methylpropanoic acid] | – | – |
| 1.55 µM | 5 | 7.64 µM | – | – | – | N#Cc1nc(C(=O)N[C@H](Cc2ccccc2)[C@H](O)C(=O)O)c(O)c2ccc(Oc3ccccc3)cc12 [Compound 74, (2S,3R)-3-(1-Cyano-4-hydroxy-7-phenoxyisoquinoline-3-carboxamido)-2-hydroxy-4-phenylbutanoic acid] | – | – |
| 1.17 µM | 16 | 18.9 µM | – | – | – | N#Cc1nc(C(=O)N[C@H](Cc2ccccc2)[C@@H](O)C(=O)O)c(O)c2ccc(Oc3ccccc3)cc12 [Compound 75, (2R,3R)-3-(1-Cyano-4-hydroxy-7-phenoxyisoquinoline-3-carboxamido)-2-hydroxy-4-phenylbutanoic acid] | – | – |
| 0.16 µM | 18 | 2.86 µM | – | – | – | N#Cc1nc(C(=O)NCC(O)C(=O)O)c(O)c2ccc(Oc3ccccc3)cc12 (stereo not shown) [Compound 76, 3-[(1-Cyano-4-hydroxy-7-phenoxy-isoquinoline-3-carbonyl)-amino]-2-hydroxy-propionic acid] | – | – |
| 0.41 µM | 22 | 9.12 µM | – | – | – | CC(C)(CNC(=O)c1nc(C#N)c2cc(Oc3ccccc3)ccc2c1O)C(=O)O [Compound 77, 3-[(1-Cyano-4-hydroxy-7-phenoxy-isoquinoline-3-carbonyl)-amino]-2,2-dimethyl-propionic acid] | – | – |
| 3.27 µM | 30 | 96.8 µM | – | – | – | C[C@@H](CC(=O)O)NC(=O)c1nc(C#N)c2cc(Oc3ccccc3)ccc2c1O [Compound 78, 3-(S)-[(1-Cyano-4-hydroxy-7-phenoxy-isoquinoline-3-carbonyl)-amino]-butyric acid] | – | – |
| 0.11 µM | 15 | 1.69 µM | – | – | – | N#Cc1nc(C(=O)NC[C@H](O)C(=O)O)c(O)c2ccc(Oc3ccccc3)cc12 [Compound 79, 3-[(1-Cyano-4-hydroxy-7-phenoxy-isoquinoline-3-carbonyl)-amino]-2-(S)-hydroxy-propionic acid] | – | – |
| 0.14 µM | 5 | 0.71 µM | – | – | – | N#Cc1nc(C(=O)NCCCC(=O)O)c(O)c2ccc(Oc3ccccc3)cc12 [Compound 80, 4-[(1-Cyano-4-hydroxy-7-phenoxy-isoquinoline-3-carbonyl)-amino]-butyric acid] | – | – |
| 0.42 µM | 12 | 4.95 µM | – | – | – | N#Cc1nc(C(=O)NCCCCC(=O)O)c(O)c2ccc(Oc3ccccc3)cc12 [Compound 81, 5-[(1-Cyano-4-hydroxy-7-phenoxy-isoquinoline-3-carbonyl)-amino]-pentanoic acid] | – | – |
| 0.24 µM | 12 | 2.75 µM | – | – | – | N#Cc1nc(C(=O)NCC[C@H](O)C(=O)O)c(O)c2ccc(Oc3ccccc3)cc12 [Compound 83, 4-[(1-Cyano-4-hydroxy-7-phenoxy-isoquinoline-3-carbonyl)-amino]-2-(S)-hydroxy-butyric acid] | – | – |
| 0.34 µM | 6 | 2.11 µM | – | – | – | CC(C)(CCNC(=O)c1nc(C#N)c2cc(Oc3ccccc3)ccc2c1O)C(=O)O [Compound 84, 4-[(1-Cyano-4-hydroxy-7-phenoxy-isoquinoline-3-carbonyl)-amino]-2,2-dimethyl-butyric acid] | – | – |
| 2.51 µM | 21 | 51.9 µM | – | – | – | N#Cc1nc(C(=O)NC[C@H](N)C(=O)O)c(O)c2ccc(Oc3ccccc3)cc12 [Compound 86, 2-(S)-Amino-3-[(1-cyano-4-hydroxy-7-phenoxy-isoquinoline-3-carbonyl)-amino]-propionic acid] | – | – |
| 3.56 µM | 8 | 27.5 µM | – | – | – | N#Cc1nc(C(=O)NC[C@H](NC(=O)OCc2ccccc2)C(=O)O)c(O)c2ccc(Oc3ccccc3)cc12 [Compound 87, 2-(S)-Benzyloxycarbonylamino-3-[(1-cyano-4-hydroxy-7-phenoxy-isoquinoline-3-carbonyl)-amino]-propionic acid] | – | – |
| 14.1 µM | 7 | 93.3 µM | – | – | – | N#Cc1nc(C(=O)N[C@H]2CC[C@H](C(=O)O)CC2)c(O)c2ccc(Oc3ccccc3)cc12 [Compound 88, trans-4-[(1-Cyano-4-hydroxy-7-phenoxy-isoquinoline-3-carbonyl)-amino]-cyclohexanecarboxylic acid] | – | – |
| 2.86 µM | 5 | 13.6 µM | – | – | – | CC(C)(CNC(=O)c1nc(C#N)c2cc(Oc3ccccc3)ccc2c1O)CC(=O)O [Compound 89, 4-[(1-Cyano-4-hydroxy-7-phenoxy-isoquinoline-3-carbonyl)-amino]-3,3-dimethyl-butyric acid] | – | – |

| SMILES | IC50 (PHD1 (EGLN2); [1]) | PHD2/PHD1 (PHD1 (EGLN2); [2]) | IC50 (PHD2 (EGLN1); [3]) | IC50 (PHD1 (EGLN2); [4]) | PHD2/PHD1 avg. (PHD1 (EGLN2); Table 1) | IC50 (PHD2 (EGLN1); [5]) | PHD2/PHD1 (PHD1 (EGLN2)) | IC50 (PHD1 (EGLN2); read-out: IC50 (μM) PHD1) |
| --- | --- | --- | --- | --- | --- | --- | --- | --- |
| CC(C)C(CC(=O)O)NC(=O)c1nc(C#N)c2cc(Oc3ccccc3)ccc2c1O (stereo not shown) [Compound 61, 3-[(1-Cyano-4-hydroxy-7-phenoxy-isoquinoline-3-carbonyl)-amino]-4-methyl-pentanoic acid] | – | – | > 200 µM | – | – | – | 6 | 33.3 µM |
| CC(C)(C)OC(=O)N[C@@H](CNC(=O)c1nc(C#N)c2cc(Oc3ccccc3)ccc2c1O)C(=O)O [Compound 85, 2-(S)-tert-Butoxycarbonylamino-3-[(1-cyano-4-hydroxy-7-phenoxy-isoquinoline-3-carbonyl)-amino]-propionic acid] | 19.1 µM | 6 | 112 µM | – | – | – | – | – |
